US8486996B2, “Aroylfuranes and aroylthiophenes” (Basilea Pharmaceutica AG, priority 2006, dated 2013)
Read-outs that look alike come from different tables or passages of the source.

Experiments:
[1] = Hoechst 33342 nuclear staining (48 h read-out); format: cell-based
How it was run: (§1)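 Adherent cells pre-spread 24 h before dosing, suspension cells dosed at seeding; compounds at 0.001 μM-10 μM final, 48 h at culture conditions. Hoechst 33342 (2-5 μg/ml) added for 30 min, then fluorescence microscopy scoring of apoptotic nuclear fraction and apoptosis-specific morphology, reported as scores A-D.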

tumor cells [2] = experiment: Hoechst 33342 nuclear staining (48 h read-out); format: cell-based
How it was run: as §1

tumor cells [3] = experiment: MTS proliferation assay (72 h read-out); format: cell-based
How it was run: (§2)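 Tumour cells (1.5×10^3–10^4 per well) were seeded 24 h before compound addition, then exposed to 0.001–10 μM final compound for 72 h under culture conditions. MTS reagent was added for a further 3 h, absorbance was read at 492 nm, and results were binned into scores A–D.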

[4] = Mitochondrial membrane potential, JC-1 (read-out 48 h); format: cell-based; settings: PBL, JC-1, 48 h
How it was run: (§3)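 Tumor cells were treated with test compounds (adherent cells after 24 h of attachment, suspension cells immediately), medium holding up to 5% DMSO. After 48 h, JC-1 (2-5 μg/ml in added medium) was applied for 30 min. Fluorescence microscopy (FITC/TRITC filters) scored the fraction of cells with dissipated mitochondrial membrane potential as categories A-D.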

tumor cells [5] = experiment: as above; format: cell-based; settings: JC-1, 48 h
How it was run: as §3

[6] = MTS proliferation assay (72 h read-out); format: cell-based; settings: MRC5 cells
How it was run: as §2

HeLa = experiment: Colony Forming Units (read-out 6 days), HeLa; format: cell-based, human; settings: colonies containing more than 30 cells, read-out: Colony Forming Units, score based on IC50, HeLa
Procedure: (§4) Appropriate numbers of cells (100-150 cells, dependent on the cell type) are being seeded out in 1 ml complete medium into 6-well plates and allowed to attach for 48 h. The compounds are added after 48 h in 500 μl solution. The concentrations are in the range of 0.001 μM-3 μM. Control plates receive the same volume of medium containing the appropriate amount of DMSO. The plates are incubated for 5-7 days at cell culture conditions and subsequently scored for growth of colonies (containing more than 30 cells) by using a microscope.

H460 = experiment: Colony Forming Units (read-out 6 days), H460; format: cell-based, human; settings: colonies containing more than 30 cells, read-out: Colony Forming Units, score based on IC50, H460
Procedure: as §4

[7] = Homo sapiens, MRC5 cells, read-out: Hoechst 33342 nuclear staining EC50, MRC5
[8] = PBL, read-out: Hoechst 33342 nuclear staining EC50, PBL
[9] = Homo sapiens, HeLa cells, read-out: Hoechst 33342 nuclear staining EC50, HeLa
[10] = Homo sapiens, Jurkat cells, read-out: Hoechst 33342 nuclear staining EC50, Jurkat
[11] = Jily cells, read-out: Hoechst 33342 nuclear staining EC50, Jily
[12] = Homo sapiens, HT-1080, HT1080 cells, read-out: MTS proliferation assay IC50, HT1080
[13] = Homo sapiens, HeLa cells, read-out: MTS proliferation assay IC50, HeLa
[14] = Homo sapiens, Jurkat cells, read-out: MTS proliferation assay IC50, Jurkat
[15] = Jily cells, read-out: MTS proliferation assay IC50, Jily
[16] = Homo sapiens, HeLa cells, read-out: Mitochondrial membrane potential (read-out 48 h) HeLa
[17] = Homo sapiens, Jurkat cells, read-out: Mitochondrial membrane potential (read-out 48 h) Jurkat
[18] = Homo sapiens, MCF7 cells, read-out: Mitochondrial membrane potential (read-out 48 h) MCF7
[19] = Jily cells, read-out: Mitochondrial membrane potential (read-out 48 h) Jily
[20] = MRC5 cells, read-out: Hoechst 33342 nuclear staining EC50, MRC5
[21] = HeLa cells, read-out: Hoechst 33342 nuclear staining EC50, HeLa
[22] = Jurkat cells, read-out: Hoechst 33342 nuclear staining EC50, Jurkat
[23] = HT1080 cells, read-out: MTS proliferation assay IC50, HT1080
[24] = HeLa cells, read-out: MTS proliferation assay IC50, HeLa
[25] = Jurkat cells, read-out: MTS proliferation assay IC50, Jurkat
[26] = HeLa cells, read-out: Mitochondrial membrane potential (read-out 48 h) HeLa
[27] = Jurkat cells, read-out: Mitochondrial membrane potential (read-out 48 h) Jurkat
[28] = MCF7 cells, read-out: Mitochondrial membrane potential (read-out 48 h) MCF7

SMILES	EC50 [1, 8] [nM]	EC50 (tumor cells [2]; [11]) [nM]	IC50 (tumor cells [3]; [15]) [nM]	EC50 [4] [nM]	EC50 (tumor cells [5]; [19]) [nM]	EC50 (tumor cells [2]; [21]) [nM]	EC50 (tumor cells [2]; [22]) [nM]	IC50 (tumor cells [3]; [23]) [nM]	IC50 (tumor cells [3]; [24]) [nM]	IC50 (tumor cells [3]; [25]) [nM]	EC50 (tumor cells [5]; [26]) [nM]	EC50 (tumor cells [5]; [27]) [nM]	EC50 (tumor cells [5]; [28]) [nM]	IC50 (HeLa) [nM]	IC50 (H460) [nM]	EC50 [1, 20] [nM]	IC50 [6] [nM]	also measured
CCOc1ccc(C(=O)OC)cc1C(=O)c1oc2ccc(Cl)cc2c1N [Example 20]	> 1000	10 to 100	10 to 100	> 1000	10 to 100	–	–	–	–	–	–	–	–	–	–	–	–	EC50 [1, 7]: > 1000 nM; EC50 (tumor cells [2]; [9]): 100 to 1000 nM; EC50 (tumor cells [2]; [10]): 10 to 100 nM; IC50 (tumor cells [3]; [12]): 10 to 100 nM; IC50 (tumor cells [3]; [13]): 100 to 1000 nM; IC50 (tumor cells [3]; [14]): 10 to 100 nM; EC50 (tumor cells [5]; [16]): 100 to 1000 nM; EC50 (tumor cells [5]; [17]): 10 to 100 nM; EC50 (tumor cells [5]; [18]): 100 to 1000 nM; melting point: 136 to 138 °C
COc1ccc2oc(C(=O)c3cc(F)ccc3N3CCOCC3)cc2c1 [Example 38, 2-(5-Fluoro-2-morpholinobenzoyl)-5-methoxybenzofuran]	> 1000	< 10	10 to 100	> 1000	10 to 100	–	–	–	–	–	–	–	–	–	–	–	–	EC50 [1, 7]: 10 to 100 nM; EC50 (tumor cells [2]; [9]): 10 to 100 nM; EC50 (tumor cells [2]; [10]): < 10 nM; IC50 ([6]; Homo sapiens): 10 to 100 nM; IC50 (tumor cells [3]; [12]): 10 to 100 nM; IC50 (tumor cells [3]; [13]): 10 to 100 nM; IC50 (tumor cells [3]; [14]): 10 to 100 nM; EC50 (tumor cells [5]; [16]): 10 to 100 nM; EC50 (tumor cells [5]; [17]): 10 to 100 nM; EC50 (tumor cells [5]; [18]): 10 to 100 nM; IC50 (HeLa; Homo sapiens, 144 h): < 10 nM; IC50 (H460; Homo sapiens, NCI-H460, 144 h): < 10 nM
CCOc1ccc(F)cc1C(=O)c1oc2ccc(OC)cc2c1N [Example 48]	> 1000	< 10	< 10	100 to 1000	< 10	< 10	< 10	< 10	< 10	< 10	10 to 100	< 10	10 to 100	10 to 100	< 10	< 10	< 10	–
CCOc1ccccc1C(=O)c1cc2cc(OC)ccc2o1 [Example 53]	> 1000	10 to 100	< 10	> 1000	10 to 100	10 to 100	< 10	< 10	< 10	–	10 to 100	10 to 100	10 to 100	10 to 100	10 to 100	100 to 1000	< 10	–
CCOc1ccc(F)cc1C(=O)c1oc2ccc(OC)cc2c1NC(=O)COC [Example 58]	> 1000	10 to 100	10 to 100	> 1000	10 to 100	100 to 1000	10 to 100	10 to 100	10 to 100	< 10	100 to 1000	10 to 100	100 to 1000	10 to 100	10 to 100	> 1000	10 to 100	–
Nc1c(C(=O)c2ccccc2OCC(F)(F)F)oc2ccc(Cl)cc12 [Example 61]	> 1000	10 to 100	< 10	> 1000	10 to 100	100 to 1000	< 10	10 to 100	10 to 100	< 10	100 to 1000	10 to 100	> 1000	10 to 100	10 to 100	> 1000	10 to 100	–
CCOc1ccc(F)cc1C(=O)c1cc2cc(O)ccc2o1 [Example 64]	> 1000	10 to 100	< 10	> 1000	10 to 100	10 to 100	< 10	10 to 100	10 to 100	< 10	10 to 100	< 10	> 1000	10 to 100	10 to 100	100 to 1000	10 to 100	–

Now from value to molecule, other results behind:

EC50 [1, 8] [nM]	EC50 (tumor cells [2]; [11]) [nM]	IC50 (tumor cells [3]; [15]) [nM]	EC50 [4] [nM]	EC50 (tumor cells [5]; [19]) [nM]	EC50 (tumor cells [2]; [21]) [nM]	EC50 (tumor cells [2]; [22]) [nM]	IC50 (tumor cells [3]; [23]) [nM]	IC50 (tumor cells [3]; [24]) [nM]	IC50 (tumor cells [3]; [25]) [nM]	EC50 (tumor cells [5]; [26]) [nM]	EC50 (tumor cells [5]; [27]) [nM]	EC50 (tumor cells [5]; [28]) [nM]	IC50 (HeLa) [nM]	IC50 (H460) [nM]	SMILES	EC50 [1, 20] [nM]	IC50 [6] [nM]	also measured
> 1000	< 10	< 10	> 1000	10 to 100	10 to 100	10 to 100	< 10	< 10	–	100 to 1000	10 to 100	100 to 1000	< 10	< 10	CCOc1ccc2oc(C(=O)c3cc(F)ccc3OCC)cc2c1 [Example 66]	100 to 1000	< 10	–
> 1000	< 10	< 10	> 1000	< 10	< 10	< 10	< 10	10 to 100	< 10	< 10	< 10	10 to 100	10 to 100	10 to 100	CCOc1ccc(F)cc1C(=O)c1oc2ccc(O)cc2c1N [Example 75]	< 10	< 10	–
> 1000	10 to 100	< 10	> 1000	10 to 100	10 to 100	< 10	< 10	10 to 100	< 10	10 to 100	< 10	100 to 1000	10 to 100	10 to 100	CCOc1ncccc1C(=O)c1oc2ccc(Cl)cc2c1N [Example 78]	> 1000	< 10	–
> 1000	100 to 1000	10 to 100	> 1000	100 to 1000	100 to 1000	100 to 1000	100 to 1000	100 to 1000	10 to 100	100 to 1000	10 to 100	> 1000	100 to 1000	100 to 1000	CCN(C)c1ncccc1C(=O)c1oc2ccc(Cl)cc2c1N [Example 80]	> 1000	100 to 1000	–
> 1000	10 to 100	< 10	> 1000	< 10	10 to 100	< 10	< 10	< 10	< 10	10 to 100	< 10	10 to 100	10 to 100	10 to 100	Nc1c(C(=O)c2cccnc2N2CCCCC2)oc2ccc(Cl)cc12 [Example 82]	10 to 100	< 10	–
> 1000	10 to 100	10 to 100	> 1000	< 10	10 to 100	< 10	10 to 100	10 to 100	< 10	< 10	< 10	< 10	10 to 100	10 to 100	COc1ccc2oc(C(=O)c3cc(F)ccc3N3CC=CCC3)cc2c1 [Example 98]	10 to 100	< 10	–
> 1000	100 to 1000	–	> 1000	–	–	–	–	–	–	–	–	–	–	–	CCOc1ccccc1C(=O)COc1nc(C)ccc1C#N [Example 145]	–	–	EC50 [1, 7]: > 1000 nM; EC50 (tumor cells [2]; [9]): > 1000 nM; EC50 (tumor cells [2]; [10]): 100 to 1000 nM; EC50 (tumor cells [5]; [16]): > 1000 nM; EC50 (tumor cells [5]; [17]): 100 to 1000 nM; EC50 (tumor cells [5]; [18]): 100 to 1000 nM; melting point: 156 to 158 °C
> 1000	100 to 1000	–	> 1000	–	–	–	–	–	–	–	–	–	–	–	CCOc1ccc(Cl)cc1C(=O)COc1nc(C)ccc1C#N [Example 146]	–	–	EC50 [1, 7]: 100 to 1000 nM; EC50 (tumor cells [2]; [9]): 100 to 1000 nM; EC50 (tumor cells [2]; [10]): 10 to 100 nM; EC50 (tumor cells [5]; [16]): 100 to 1000 nM; EC50 (tumor cells [5]; [17]): 10 to 100 nM; EC50 (tumor cells [5]; [18]): 100 to 1000 nM; melting point: 138 to 140 °C
